Experimental data taken from patent US8071558B2, “Application of D-psicose to suppression of abnormal circadian increase in blood glucose level” (Rare Sugar Production Technical Research Laboratories, LLC., priority 2005, dated 2011).

How the values were obtained:
Male Wistar rats [1] = test: Oral glucose tolerance test: influence of D-psicose on the reaction of increasing blood glucose; format: in vivo, rat
Protocol: Male Wistar rats of age 6 months were fed ad libitum under a condition that the bright cycle was at a temperature of 25° C. and a humidity of 50 to 70% from 8:00 am to 20:00 pm, for preliminary feeding for one week. On the day before the experiment, the rats were fasted for 12 hours and subsequently orally given D-glucose at 2 g/kg (in the form of 50% glucose solution) using a probe. Blood was drawn before the dosing and 30, 60, 90, 120, 150 and 180 minutes after the dosing. Blood glucose level was measured with a blood glucose meter. Alternatively, D-fructose or D-psicose at 0.32 g/kg (at 16% of D-glucose) was simultaneously given with D-glucose at 2 g/kg. In the same manner, blood glucose level was measured. Based on the resulting blood glucose levels, the area under the curve of blood glucose level (ΔAUC) was calculated.

[2] = test system: diabetic rats (fatty Zucker rats); conditions: cited from earlier work
Male Wistar rats [3] = test: Soluble starch administration experiment, plasma glucose; format: in vivo, rat; conditions: for Plasma glucose level, 0 min: before soluble starch 2 g/kg + test sugar 200 mg/kg; for Plasma glucose level, 30 min / Plasma glucose level, 60 min / Plasma glucose level, 90 min / Plasma glucose level, 120 min / ΔAUC of plasma glucose level: soluble starch 2 g/kg + test sugar 200 mg/kg; for action to suppress the increase of blood glucose level: given simultaneously with soluble starch (experiment 3)
Protocol: (§1) Thirty-six male Wistar rats of age 6 months are divided into 6 groups. The following sugars were given to the rats in the individual groups after 12-hour fasting. Before the administration and 30, 60, 90, 120 and 180 minutes after the administration, blood is drawn from the tail vein, to assay plasma glucose and insulin concentration.
1. Soluble starch 2 g/kg (SS)
2. Soluble starch 2 g/kg+L-arabinose 200 mg/kg (SSA)
3. Soluble starch 2 g/kg+D-xylose 200 mg/kg (SSX)
4. Soluble starch 2 g/kg+D-fructose 200 mg/kg (SSF)
5. Soluble starch 2 g/kg+D-psicose 200 mg/kg (SSP)
6. Soluble starch 2 g/kg+(fructose 150 mg/kg+psicose 50 mg/kg) (SSFP)
(§2) Before the administration and 30, 60, 90, 120 and 180 minutes after the administration, plasma glucose level was assayed. The plasma glucose level 180 minutes later was used to calculate the area under the curve of plasma glucose level (ΔAUC).

sucrase = biological target: T1, sucrase (Rattus norvegicus, UniProt P23739); test: Sucrose administration experiment (inhibition of sucrase in vivo), plasma glucose; conditions: rats; for Plasma glucose level, 0 min: before sucrose 2 g/kg + test sugar 200 mg/kg; for Plasma glucose level, 30 min / Plasma glucose level, 60 min / Plasma glucose level, 90 min / Plasma glucose level, 120 min / ΔAUC of plasma glucose level: sucrose 2 g/kg + test sugar 200 mg/kg
T1 construct: from tissue; host or cells: small intestine of live male Wistar rats (oral sugar load)
T1 sequence (P23739 whole entry): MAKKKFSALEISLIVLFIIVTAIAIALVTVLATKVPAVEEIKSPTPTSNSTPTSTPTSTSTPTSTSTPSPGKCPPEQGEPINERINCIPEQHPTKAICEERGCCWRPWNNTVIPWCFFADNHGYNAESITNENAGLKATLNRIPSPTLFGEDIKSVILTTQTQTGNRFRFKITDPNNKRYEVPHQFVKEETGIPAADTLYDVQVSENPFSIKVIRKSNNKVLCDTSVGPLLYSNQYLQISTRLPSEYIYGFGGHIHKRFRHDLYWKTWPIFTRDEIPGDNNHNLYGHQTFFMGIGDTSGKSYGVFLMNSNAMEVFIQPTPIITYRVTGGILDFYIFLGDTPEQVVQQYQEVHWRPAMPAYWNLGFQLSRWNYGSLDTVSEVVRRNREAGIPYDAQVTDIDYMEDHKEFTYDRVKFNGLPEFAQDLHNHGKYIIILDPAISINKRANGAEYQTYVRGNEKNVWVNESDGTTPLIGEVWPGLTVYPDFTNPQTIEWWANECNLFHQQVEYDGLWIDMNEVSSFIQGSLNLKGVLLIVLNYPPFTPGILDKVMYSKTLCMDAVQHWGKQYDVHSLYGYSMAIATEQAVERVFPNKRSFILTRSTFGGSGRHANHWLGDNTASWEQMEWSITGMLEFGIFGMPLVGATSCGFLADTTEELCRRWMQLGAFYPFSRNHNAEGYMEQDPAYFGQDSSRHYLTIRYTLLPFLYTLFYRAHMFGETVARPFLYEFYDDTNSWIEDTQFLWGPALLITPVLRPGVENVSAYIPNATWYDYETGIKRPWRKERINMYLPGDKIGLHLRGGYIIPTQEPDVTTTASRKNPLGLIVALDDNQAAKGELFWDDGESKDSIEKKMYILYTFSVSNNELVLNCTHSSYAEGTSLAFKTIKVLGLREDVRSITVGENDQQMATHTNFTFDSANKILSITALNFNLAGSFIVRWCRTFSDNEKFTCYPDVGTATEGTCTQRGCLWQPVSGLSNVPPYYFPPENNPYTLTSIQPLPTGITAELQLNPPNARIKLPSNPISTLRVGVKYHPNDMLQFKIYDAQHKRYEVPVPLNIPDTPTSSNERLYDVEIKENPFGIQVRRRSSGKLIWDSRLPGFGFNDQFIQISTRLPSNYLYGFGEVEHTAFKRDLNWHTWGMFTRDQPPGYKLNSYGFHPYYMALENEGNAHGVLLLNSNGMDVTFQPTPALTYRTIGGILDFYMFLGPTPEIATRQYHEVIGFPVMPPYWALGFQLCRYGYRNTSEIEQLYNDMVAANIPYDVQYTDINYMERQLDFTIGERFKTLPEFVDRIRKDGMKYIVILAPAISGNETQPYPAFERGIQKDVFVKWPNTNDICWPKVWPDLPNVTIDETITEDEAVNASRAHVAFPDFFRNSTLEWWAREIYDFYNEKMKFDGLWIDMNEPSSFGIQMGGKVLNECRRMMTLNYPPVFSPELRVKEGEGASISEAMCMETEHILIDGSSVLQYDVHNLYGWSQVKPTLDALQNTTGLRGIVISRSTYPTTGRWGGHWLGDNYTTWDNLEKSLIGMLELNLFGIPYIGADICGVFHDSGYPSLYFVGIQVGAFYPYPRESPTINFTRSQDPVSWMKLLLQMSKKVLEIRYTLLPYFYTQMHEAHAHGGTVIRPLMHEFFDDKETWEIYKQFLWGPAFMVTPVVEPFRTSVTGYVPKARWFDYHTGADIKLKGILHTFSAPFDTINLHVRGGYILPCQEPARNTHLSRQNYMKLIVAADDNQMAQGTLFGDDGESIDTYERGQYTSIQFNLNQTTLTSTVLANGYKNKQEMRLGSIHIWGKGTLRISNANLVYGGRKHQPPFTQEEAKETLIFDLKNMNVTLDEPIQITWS
Protocol: Sucrose 2 g/kg+L-arabinose 200 mg/kg (SA)
Sucrose 2 g/kg+D-xylose 200 mg/kg (SX)
Sucrose 2 g/kg+D-fructose 200 mg/kg (SF)
Sucrose 2 g/kg+D-psicose 200 mg/kg (SP)
Sucrose 2 g/kg+(fructose 150 mg/kg+psicose 50 mg/kg) (SFP)

maltase = test: Maltose administration experiment (inhibition of maltase in vivo), plasma glucose; parameters: species or system rat; conditions: rats; for Plasma glucose level, 0 min: before maltose 2 g/kg + test sugar 200 mg/kg; for Plasma glucose level, 30 min / Plasma glucose level, 60 min / Plasma glucose level, 90 min / Plasma glucose level, 120 min / ΔAUC of plasma glucose level: maltose 2 g/kg + test sugar 200 mg/kg; for action to suppress the increase of blood glucose level: given simultaneously with maltose (experiment 2)
Protocol: as §1
2. Maltose 2 g/kg+L-arabinose 200 mg/kg (MA)
3. Maltose 2 g/kg+D-xylose 200 mg/kg (MX)
4. Maltose 2 g/kg+D-fructose 200 mg/kg (MF)
5. Maltose 2 g/kg+D-psicose 200 mg/kg (MP)
6. Maltose 2 g/kg+(fructose 150 mg/kg+psicose 50 mg/kg) (MFP)
as §2

liver = conditions: in vivo; cited from earlier work

Compound | Plasma glucose level, 0 min (Male Wistar rats [3]) [mg/dL] | Plasma glucose level, 30 min (Male Wistar rats [3]) [mg/dL] | Plasma glucose level, 60 min (Male Wistar rats [3]) [mg/dL] | Plasma glucose level, 90 min (Male Wistar rats [3]) [mg/dL] | Plasma glucose level, 120 min (Male Wistar rats [3]) [mg/dL] | ΔAUC of plasma glucose level (Male Wistar rats [3]) [min^− mg/dl] | Plasma glucose level, 0 min (sucrase) [mg/dL] | Plasma glucose level, 30 min (sucrase) | Plasma glucose level, 60 min (sucrase) | Plasma glucose level, 90 min (sucrase) | Plasma glucose level, 120 min (sucrase) [mg/dL] | ΔAUC of plasma glucose level (sucrase) [min^− mg/dl] | Plasma glucose level, 0 min (maltase) [mg/dL] | Plasma glucose level, 30 min (maltase) [mg/dL] | Plasma glucose level, 60 min (maltase) | Plasma glucose level, 90 min (maltase) [mg/dL] | Plasma glucose level, 120 min (maltase) [mg/dL] | ΔAUC of plasma glucose level (maltase) [min^− mg/dl] | action to suppress the increase of blood glucose level (Male Wistar rats [3]) | action to suppress the increase of blood glucose level (maltase) | further results
O=C(CO)[C@@H](O)[C@H](O)[C@H](O)CO [D-fructose] | 92 ± 4 | 130 ± 15 | 137 ± 21 | 132 ± 13 | 130 ± 13 | 4243 | 97 | 134 ± 13 ab mg/dl | 148 ± 12 ab mg/dl | 147 ± 9 ab mg/dl | 141 ± 7 | 4732 | 81 ± 10 | 139 ± 15 | 156 ± 20 ab mg/dl | 152 ± 10 | 142 ± 12 | 7031 | – | – | ΔAUC of blood glucose level compared with single D-glucose administration (Male Wistar rats [1]; D-glucose 2 g/kg + 0.32 g/kg test sugar): significantly low; blood glucose level compared with single administration of D-glucose (Male Wistar rats [1]; D-glucose 2 g/kg + 0.32 g/kg test sugar, minutes after administration): significantly low in 90 and 120 minutes; increase of the blood glucose level (Male Wistar rats [1]; oral D-glucose 2 g/kg with test sugar 0.32 g/kg (16% of D-glucose) simultaneously): suppressed; reaction of increasing blood glucose via D-glucose and maltodextrin [2]: suppressed
O=C(CO)[C@@H](O)[C@@H](O)[C@H](O)CO [D-tagatose] | – | – | – | – | – | – | – | – | – | – | – | – | – | – | – | – | – | – | – | – | histological change of liver (liver): never involved any histological change of liver
O=C[C@H](O)[C@@H](O)[C@H](O)CO [D-xylose] | 99 ± 10 | 141 ± 8 | 135 ± 12 | 138 ± 16 | 131 ± 12 | 4040 | 102 | 123 ± 11 b mg/dl | 126 ± 12 b mg/dl | 130 ± 13 b mg/dl | 137 ± 16 | 2646 | 86 ± 8 | 146 ± 14 | 172 ± 12 a mg/dl | 166 ± 20 | 150 ± 19 | 7765 | scarcely suppressed | scarcely suppressed | –
O=C[C@H](O)[C@@H](O)[C@@H](O)CO [L-arabinose] | 97 ± 9 | 135 ± 20 | 129 ± 22 | 128 ± 22 | 119 ± 15 | 3370 | 93 | 139 ± 21 ab mg/dl | 142 ± 21 ab mg/dl | 139 ± 14 ab mg/dl | 142 ± 18 | 4978 | 89 ± 7 | 139 ± 16 | 157 ± 22 ab mg/dl | 149 ± 21 | 138 ± 22 | 6087 | scarcely suppressed | scarcely suppressed | –
